Assays:
Estrogen receptor [1] = target: T1, Estrogen receptor (Homo sapiens, UniProt Q92731+P03372); conditions: ishikawa
Description: Inhibitory concentration against estrogen-induced proliferation of Ishikawa uterine cells by 1 nM E2

Estrogen receptor [2] = target: T1, Estrogen receptor; conditions: mcf7
Description: Half maximal inhibitory concentration against estrogen-induced proliferation of MCF-7 breast cells by 10 pM E2

Estrogen receptor beta = Estrogen receptor beta (Rattus norvegicus, UniProt Q62986)
Description: Binding affinity for rat estrogen receptor beta

Estrogen receptor [3] = target: T2, Estrogen receptor (Rattus norvegicus, UniProt P06211)
T2 sequence (P06211 whole entry): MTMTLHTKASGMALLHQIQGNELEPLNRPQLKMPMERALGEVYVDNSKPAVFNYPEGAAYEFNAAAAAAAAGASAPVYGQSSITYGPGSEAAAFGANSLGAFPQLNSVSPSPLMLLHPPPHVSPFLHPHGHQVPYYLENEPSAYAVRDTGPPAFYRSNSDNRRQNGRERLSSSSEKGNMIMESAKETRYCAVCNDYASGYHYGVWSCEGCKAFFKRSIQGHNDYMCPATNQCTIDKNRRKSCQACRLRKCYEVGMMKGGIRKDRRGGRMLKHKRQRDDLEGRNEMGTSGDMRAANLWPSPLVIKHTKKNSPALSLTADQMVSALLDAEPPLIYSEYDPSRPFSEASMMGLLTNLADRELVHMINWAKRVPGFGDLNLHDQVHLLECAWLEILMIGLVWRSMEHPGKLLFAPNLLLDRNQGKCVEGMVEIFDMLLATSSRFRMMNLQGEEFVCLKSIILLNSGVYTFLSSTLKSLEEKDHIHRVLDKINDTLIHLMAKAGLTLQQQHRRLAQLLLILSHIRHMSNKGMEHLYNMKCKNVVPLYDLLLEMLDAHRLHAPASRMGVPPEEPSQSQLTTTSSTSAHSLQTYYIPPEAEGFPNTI
Description: Binding affinity for rat estrogen receptor alpha

Sequence of Estrogen receptor beta (Q62986 whole entry): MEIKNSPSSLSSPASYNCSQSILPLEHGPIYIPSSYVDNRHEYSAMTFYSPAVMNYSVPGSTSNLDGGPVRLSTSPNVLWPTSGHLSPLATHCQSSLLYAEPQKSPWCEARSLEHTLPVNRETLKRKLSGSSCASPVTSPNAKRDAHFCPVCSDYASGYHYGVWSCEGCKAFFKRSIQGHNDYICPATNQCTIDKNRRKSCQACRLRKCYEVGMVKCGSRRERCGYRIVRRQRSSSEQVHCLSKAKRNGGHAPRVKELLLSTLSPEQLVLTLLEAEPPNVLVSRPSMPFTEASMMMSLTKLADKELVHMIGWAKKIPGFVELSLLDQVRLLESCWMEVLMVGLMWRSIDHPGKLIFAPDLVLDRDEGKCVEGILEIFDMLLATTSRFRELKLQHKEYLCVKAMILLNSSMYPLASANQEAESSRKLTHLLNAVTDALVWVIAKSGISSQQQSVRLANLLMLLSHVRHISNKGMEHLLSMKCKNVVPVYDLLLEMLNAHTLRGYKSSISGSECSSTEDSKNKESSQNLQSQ

| IC50 (Estrogen receptor [1]) | IC50 (Estrogen receptor [2]) | Ki (Estrogen receptor beta) | Ki (Estrogen receptor [3]) | Structure (SMILES) |
| --- | --- | --- | --- | --- |
| 4.78 nM | 3.4 nM | 24.1 nM | 1.15 nM | CS(=O)(=O)c1ccc(-c2ccc3cc(O)ccc3c2Cc2ccc(OCCN3CCCCC3)cc2)cc1.Cl |
| 3.18 nM | 0.34 nM | 0.3 nM | 0.25 nM | Cl.Oc1ccc2c(Oc3ccc(OCCN4CCCCC4)cc3)c(-c3ccc(F)cc3)ccc2c1 |

| Structure (SMILES) | IC50 (Estrogen receptor [1]) | IC50 (Estrogen receptor [2]) | Ki (Estrogen receptor beta) | Ki (Estrogen receptor [3]) |
| --- | --- | --- | --- | --- |
| Cl.Oc1ccc(-c2ccc3cc(O)ccc3c2Cc2ccc(OCCN3CCCCC3)cc2)cc1 | 1.14 nM | 0.2 nM | 0.7 nM | 0.2 nM |

Source: ChEMBL document CHEMBL1141131, “A selective estrogen receptor modulator designed for the treatment of uterine leiomyoma with unique tissue specificity for uterus and ovaries in rats” (J Med Chem, 2005)
